Test results published in patent US20240246902A1, “PRODRUGS OF 6-DIAZO-5-OXO-L-NORLEUCINE” (THE JOHNS HOPKINS UNIVERSITY, priority 2021, published 2024).

How the values were obtained:
[1] = Metabolic stability in swine liver tissue homogenate; type: in vitro ADME; settings: prodrug 20 μM, 37° C.
Experimental: (§1) The representative Compounds of the Disclosure were screened for metabolic stability in swine jejunum/liver tissue homogenates, following our previously reported methods (Zimmermann et al., J. Med. Chem., 61(9):3918-29 (2018); Tenora et al., J. Med. Chem., 62(7):3524-38 (2019)). In brief, freshly collected tissues were homogenized by probe sonication in 9× volume of 0.1 M potassium phosphate buffer over ice. Post homogenization, prodrugs were spiked at a concentration of 20 μM (in triplicate) and incubated in an orbital shaker at 37° C. for 60 min. Final concentration of DMSO in the incubations was 0.2% v/v. At each time point (0, 30, 60 min), 100 μL of sample was precipitated with 300 μL of methanol containing internal standard (IS; losartan: 0.5 μM). […] After centrifugation, 50 μL of supernatant was diluted with 50 μL of water, vortexed and submitted for analysis. Prodrug disappearance over time was measured using liquid chromatography tandem mass spectrometry (LC-MS/MS).
(§2) The processed supernatants were analyzed on a Thermo Scientific Vanquish UPLC system (equipped with Vanquish autosampler, pumps, and column compartment) hyphenated to TSQ Altis mass spectrometer (Thermo Fisher Scientific Inc., Waltham MA). […] The autosampler was operated at 4° C. […] Peak area ratios obtained from peak area counts of analyte and internal standard were used to measure the disappearance of prodrugs.

[2] = Metabolic stability in swine jejunum (gut) tissue homogenate; type: in vitro ADME; settings: prodrug 20 μM, 37° C.
Experimental: as §1, §2

[3] = Efflux
[4] = Plasma stability, mouse plasma; settings: MP = Mouse Plasma

Liver stability (% remaining at 60 min) [1]	Gut Stability (% remaining at 60 min) [2]	Efflux [3]	Plasma Stability (% remaining at 60 min) [4]	SMILES
2 ± 0%	93 ± 1%	1		CC(=O)N[C@@H](CCC(=O)C=[N+]=[N-])C(=O)OC(C)(C)C [Compound 5g, tert-Butyl (S)-2-acetamido-6-diazo-5-oxohexanoate]
83 ± 2%		1		CCOC(=O)[C@H](CCC(=O)C=[N+]=[N-])NC(C)=O [Compound 5k, Ethyl (S)-2-acetamido-6-diazo-5-oxohexanoate]
0 ± 0%		21		COC(=O)[C@H](CCC(=O)C=[N+]=[N-])NC(=O)[C@H](Cc1c[nH]c2ccccc12)NC(=O)CN(C)C [Compound 28a, Methyl (S)-6-diazo-2-((S)-2-(2-(dimethylamino)acetamido)-3-(1H-indol-3-yl)propanamido)-5-oxohexanoate]
95 ± 1%	99 ± 2%	32		C[C@H](NC(=O)CN(C)C)C(=O)N[C@@H](CCC(=O)C=[N+]=[N-])C(=O)OC(C)(C)C [Compound 13a, tert-Butyl (S)-6-diazo-2-((S)-2-(2-(dimethylamino)acetamido)propanamido)-5-oxohexanoate]
75 ± 4%		46.71		CN(C)CC(=O)N[C@@H](Cc1cccc(F)c1)C(=O)N[C@@H](CCC(=O)C=[N+]=[N-])C(=O)OC(C)(C)C [Compound 21a, tert-Butyl (S)-6-diazo-2-((S)-2-(2-(dimethylamino)acetamido)-3-(3-fluorophenyl)propanamido)-5-oxohexanoate]
2 ± 0%		10		[2H]C([2H])([2H])OC(=O)[C@H](CCC(=O)C=[N+]=[N-])NC(=O)[C@H](Cc1c[nH]c2ccccc12)NC(C)=O [Compound 28b, Methyl-d3 (S)-2-((S)-2-acetamido-3-(1H-indol-3-yl)propanamido)-6-diazo-5-oxohexanoate]
80 ± 2%	95 ± 1%	106		CC(C)(C)OC(=O)[C@H](CCC(=O)C=[N+]=[N-])NC(=O)[C@H](Cc1c[nH]c2ccccc12)NC(=O)CN1CCOCC1 [Compound 11c, tert-Butyl (S)-2-((S)-3-(1H-indol-3-yl)-2-(2-morpholinoacetamido)propanamido)-6-diazo-5-oxohexanoate]
75 ± 1%	104 ± 2%	80		CN(C)CC(=O)N[C@@H](Cc1cn(C)c2ccccc12)C(=O)N[C@@H](CCC(=O)C=[N+]=[N-])C(=O)OC(C)(C)C [Compound 12a, tert-Butyl (S)-6-diazo-2-((S)-2-(2-(dimethylamino)acetamido)-3-(1-methyl-1H-indol-3-yl)propanamido)-5-oxohexanoate]
95 ± 3%	88 ± 4%	41	62 ± 1 (MP) %	CC(=O)N[C@@H](Cc1c[nH]c2ccccc12)C(=O)N[C@@H](CCC(=O)C=[N+]=[N-])C(=O)OC(C)(C)C [Compound 11a, tert-Butyl (S)-2-((S)-2-acetamido-3-(1H-indol-3-yl)propanamido)-6-diazo-5-oxohexanoate]
76 ± 0%	98 ± 2%	2		CC(C)OC(=O)[C@H](CCC(=O)C=[N+]=[N-])NC(=O)CN(C)C [Compound 5d, Isopropyl (S)-6-diazo-2-(2-(dimethylamino)acetamido)-5-oxohexanoate]
1 ± 0%		11		CC(=O)N[C@@H](Cc1c[nH]c2ccccc12)C(=O)N[C@@H](CCC(=O)C=[N+]=[N-])C(=O)OC(CF)CF [Compound 28c, 1,3-Difluoropropan-2-yl (S)-2-((S)-2-acetamido-3-(1H-indol-3-yl)propanamido)-6-diazo-5-oxohexanoate]
87 ± 0%	87 ± 1%	45		CC(C)C[C@H](NC(=O)CN(C)C)C(=O)N[C@@H](CCC(=O)C=[N+]=[N-])C(=O)OC(C)(C)C [Compound 16a, tert-Butyl (S)-6-diazo-2-((S)-2-(2-(dimethylamino)acetamido)-4-methylpentanamido)-5-oxohexanoate]
100 ± 1%	96 ± 1%	15		CC(C)(C)OC(=O)[C@H](CCC(=O)C=[N+]=[N-])NC(=O)CNC(=O)CN1CCOCC1 [Compound 14c, tert-Butyl (S)-6-diazo-2-(2-(2-morpholinoacetamido)acetamido)-5-oxohexanoate]
62 ± 1%		52.07		CN(C)CC(=O)N[C@@H](Cc1ccc(F)cc1)C(=O)N[C@@H](CCC(=O)C=[N+]=[N-])C(=O)OC(C)(C)C [Compound 22a, tert-Butyl (S)-6-diazo-2-((S)-2-(2-(dimethylamino)acetamido)-3-(4-fluorophenyl)propanamido)-5-oxohexanoate]
99 ± 1%	92 ± 4%	16		CN(C)CC(=O)NCCC(=O)N[C@@H](CCC(=O)C=[N+]=[N-])C(=O)OC(C)(C)C [Compound 25a, tert-Butyl (S)-6-diazo-2-(3-(2-(dimethylamino)acetamido)propanamido)-5-oxohexanoate]
7 ± 0%	9 ± 0%			CC(C)OC(=O)[C@H](CCC(=O)C=[N+]=[N-])NC(=O)[C@H](Cc1c[nH]c2ccccc12)NC(=O)C1CC1 [Compound 8e, Isopropyl (S)-2-((S)-2-(cyclopropanecarboxamido)-3-(1H-indol-3-yl)propanamido)-6-diazo-5-oxohexanoate]
57 ± 0%	87 ± 2%	5		COCCOCCOC(=O)[C@H](CCC(=O)C=[N+]=[N-])NC(C)=O [Compound 5m, 2-(2-Methoxyethoxy)ethyl (S)-2-acetamido-6-diazo-5-oxohexanoate]
103 ± 3%	96 ± 1%			CC(=O)N[C@@H](Cc1cccnc1)C(=O)N[C@@H](CCC(=O)C=[N+]=[N-])C(=O)OC(C)(C)C [Compound 17a, tert-Butyl (S)-2-((S)-2-acetamido-3-(pyridin-3-yl)propanamido)-6-diazo-5-oxohexanoate]
97 ± 0%	110 ± 2%	1		CC(C)(C)OC(=O)[C@H](CCC(=O)C=[N+]=[N-])NC(=O)C(Cl)Cl [Compound 5i, tert-Butyl (S)-6-diazo-2-(2,2-dichloroacetamido)-5-oxohexanoate]

SMILES	Liver stability (% remaining at 60 min) [1]	Gut Stability (% remaining at 60 min) [2]	Efflux [3]	Plasma Stability (% remaining at 60 min) [4]
CNC(=O)[C@H](CCC(=O)C=[N+]=[N-])NC(=O)[C@H](Cc1c[nH]c2ccccc12)NC(C)=O [Compound 31b, (S)-2-((S)-2-Acetamido-3-(1H-indol-3-yl)propanamido)-6-diazo-N-methyl-5-oxohexanamide]	103 ± 4%	90 ± 2%	1	
